Values of other authors as cited in US6270797A (USV Limited, priority 2000, dated 2001).

What was measured:
[1] = tested on: beta cells of pancreatic-islet tissue

For `Cc1cnc(C(=O)NCCc2ccc(S(=O)(=O)NC(=O)NC3CCCCC3)cc2)cn1` [Glipizide, 1-cyclohexyl-3-[[p-[2-(5-methylpyrazinecarboxamido)ethyl]phenyl]sulfonyl]urea], the “number of insulin receptors” value (insulin receptors) is listed as “may increase the number of insulin receptors” and the “insulin secretion from the beta cells of pancreatic-islet tissue” value [1] is listed as “stimulates insulin secretion”.
